# Test results as given in US7358046B2, “Sensitivity test to predict efficacy of anti-cancer therapies” (Canbas Co., Ltd., priority 2003, dated 2008).
# “Also recorded” adds a separate entry of the source. Non-standard residues stand in square brackets, D forms with d. No end group written: not given here. dPhe(F5) = N[C@H](Cc1c(F)c(F)c(F)c(F)c1F)C(=O)O; dBpa = N[C@H](Cc1ccc(C(=O)c2ccccc2)cc1)C(=O)O; dCha = N[C@H](CC1CCCCC1)C(=O)O
# What was measured:
# HCT-116 cells = assay: In vitro sensitivity test: DNA content of cells by flow cytometry; assay type: cell-based, human; settings: for change in DNA content (cell cycle distribution) of HCT-116 cells: compound alone, 2, 10, or 50 μM for 3 hr
# Experimental: Cells from a human colon cancer derived cell line HCT-116 were used in an in vitro sensitivity test that measures DNA content of cells by flow cytometry, and in an in vivo efficacy test that measures xenograft tumor growth. The effects of conventional anti-cancer therapy CPT-11, novel candidate anti-cancer therapy CBDC402, a combination of the two compounds, or control treatments (vehicle), were measured in each test system and compared.
# In vitro sensitivity test: HCT-116 cells (from ATCC) were cultured in McCOY5A medium (Sigma Chemical Co.) with L-glutamine (Sigma Chemical Co.), penicillin-streptomycin, and 10% fetal calf serum at 37° C. in 5% CO2/air. Cultured cells (at 1.6×10^5) were pelleted by centrifugation, and then re-suspended and incubated in 300 μl Krishan's solution (0.1% sodium citrate, 50 μg/ml propidium iodide, 20 μg/ml RNase A, 0.5% Nonidet P-40) for 1 h at 4° C. The quantity of DNA in each cell was determined using a fluorescence activated cell scanner (FACScan® Beckton Dickinson, Mountain View, Calif.), and results were analyzed using CELLQuest® software (Beckton Dickinson).
# The DNA content of each cell was measured at 24 hr.
# In vitro sensitivity test: The in vitro sensitivity test using HCT-116 cells and flow cytometry was carried out as described above, with the modification that CBDC004 was used instead of CBDC402. The DNA content of each cell was measured at 24 hr.
# HCT-116 xenografts = assay: Surrogate in vivo efficacy test: HCT-116 xenograft tumor assay; parameters: species or system SCID mice; settings: for HCT-116 xenograft tumor growth, combination: intraperitoneal, two weeks
# Experimental: HCT-116 cells were implanted by subcutaneous injection of the cells into male SCID mice (Severe Combined Immunodeficient mice, Charles River Lab., Wilmington, Mass.). Treatment was initiated when the tumor size reached about 0.2 cm^3 in size. The size of tumors was measured three times per week, using calipers. Tumor volumes were calculated as follows: volume (cm^3)=[width (mm)^2×length (mm)]/2000. Mean tumor sizes (volumes) with standard deviation were plotted (FIG. 1b). Animals were housed in accordance with guidelines from American Association for Laboratory Animal Care and the protocols were approved by institutional animal care committee of CanBas Co. Ltd
# (§1) Established HCT-116 xenografts (0.2 cm^3) in SCID mice were treated for two weeks by intraperitoneal injection of the following: vehicle alone (DMSO, two times per week), CBDC402 (40 mg/kg; two times per week), CPT-11 (20 mg/kg; one time per week) or the combination of CBDC402 (two times per week) and CPT-11 (one time per week). […] The results correlate with the prediction based on results from the in vitro sensitivity test using CBDC004 as described above.
# Surrogate in vivo efficacy test: A surrogate in vivo efficacy test measuring the effects of various compounds on HCT-116 xenograft tumor growth was carried out as described above, with the modification that CBDC004 was used instead of CBDC402.
# as §1, with “week), CBDC004 (30” for “week), CBDC402 (40”, “mg/kg; three” for “mg/kg; two”
# [1] = system: MIAPaCa2 cells xenograft tumors; assay: Surrogate in vivo efficacy test: MIAPaCa2 xenograft tumor assay; parameters: species or system SCID mice
# Experimental: Surrogate in vivo efficacy test: A surrogate in vivo efficacy test using the xenograft tumor assay was carried out as described above, with modifications. MIAPaCa2 cells (n=5) were implanted by subcutaneous injection of the cells to male SCID mice (Charles River Lab., Wilmington, Mass.). Treatment was initiated when tumor size reached about 0.15 cm^3 in size. The size of tumors was measured three times per week, using calipers. Tumor volumes were calculated as follows: volume (cm^3)=[width (mm)^2×length (mm)]/2000. Mean tumor sizes (volumes) with standard deviation were plotted (FIG. 1b). Animals were housed in accordance with guidelines from American Association for Laboratory Animal Care and the protocols were approved by institutional animal care committee of CanBas Co. Ltd.
# Established […] xenografts (0.2 cm^3) in SCID mice were treated two times each week for two weeks (i.e., on day 1, 5, 8, and 12) by intraperitoneal injection of the following: vehicle alone (DMSO); CBP501 (120 mg/m^2); cisplatin (CDDP, 3 mg/kg); a combination of CBP501 (30 mg/m^2) and cisplatin (CDDP, 3 mg/kg); a combination of CBP501 (60 mg/m^2) and cisplatin (CDDP, 3 mg/kg); or CBP501 (120 mg/m^2) and cisplatin (CDDP, 3 mg/kg).
# MIAPaCa2 cells = assay: In vitro sensitivity test: laser scanning cytometry of cultured xenograft tumor cells on chamber slides; settings: for anti-cancer efficacy in vitro, human cancerous cells in culture: each compound alone (summary of Example 3)
# Experimental: As a simulation of the sensitivity test for the clinical situation, established xenograft tumors of MIAPaCa2 cells in SCID mice were extracted from the mice and cultured in vitro in the presence or absence of a conventional anti-cancer therapy and a novel candidate anti-cancer therapy CBP501 (SEQ ID NO: 26), according to the protocol as follows.
# Xenograft tumors of MIAPaCa2 cells were excised from xenograft tumor bearing mice and place in a 10 cm plate with 10 ml of complete culture medium (DMEM (Dainihonseiyaku Co., Osaka, Japan) with 2.5% horse serum (Invitrogen Co., Carlsbad, Calif.) for MIAPaCa2 with 10% fetal calf serum (Equitech-bio, Kerrville, Tex.) at 37° C. with 5% CO2/air). The tissue was sliced into small pieces and non-tumor tissue was removed to the extent possible. The sliced pieces were placed in another 10 cm plate with complete culture medium and minced with a razor blade. The cells were then dispersed in culture medium by pipetting, and centrifuged for 5 min at 1200×g.
# The cell pellet was then incubated in buffer containing collagenase for 2 hours at 37° C. After centrifuging a second time, the cell pellet was incubated in buffer containing trypsin for 5 min at room temperature, then suspended in the culture medium, passed through nylon mesh, and re-centrifuged. Pelleted cells were resuspended and the resuspended cells were seeded onto chamber slides and cultured overnight in an incubator.
# Cells in chamber slides were treated with anti-cancer therapies or control treatments as follows: control solution, CBP501 (SEQ ID NO: 26) at 10 μM, cisplatin (CDDP) at 10 μg/ml, or a combination of CBP501 and cisplatin were added to chamber slides and incubated for 3 hours. Culture medium was changed and chamber slides were cultured for an additional 24 to 48 hours.
# At the beginning of the designated day (day 3, 4, or 5), medium was aspirated from chamber slides and cells were fixed by addition of 70% ethanol followed by incubation for 15 minutes at room temperature. The supernatant was discarded, and phosphate buffered saline with 50 μg/ml propidium iodide (Sigma, St. Louis, Mo.) with 0.1% RNase (Sigma) was added to the slides and incubated for 30 minutes at room temperature. Cells on the chamber slides were then analyzed by Laser Scanning Cytomery (LSC® System, with Olympus microscope).
# [2] = compound 2, 10, 50 μM for 3 hr in combination with CPT-11 50 μM for 3 hr, measured at 24 hr
# [3] = CBP501 10 μM combined with cisplatin 10 μg/ml, 3 hours, then cultured 24 to 48 hours
# [4] = CPT-11 alone, 50 μM for 3 h, DNA content measured at 24 hr
compound,measurement,setting,value
"Cc1ccc(OC(=O)c2ccc(Br)cc2)cc1 [CBDC402, 4-Bromo-benzoic acid p-tolyl ester]","change in DNA content / G2/M and G1 populations of HCT-116 cells, combination treatment",HCT-116 cells; [2],decrease in the accumulation of both the CPT-11-induced G2/M population and G1 population
same,"subG1 (dead cell) population of HCT-116 cells, combination treatment",HCT-116 cells; [2],increase in the subG1 (dead cell) population
same,change in DNA content (cell cycle distribution) of HCT-116 cells,HCT-116 cells; DNA content measured at 24 hr,did not alter the DNA content
same,"HCT-116 xenograft tumor growth, combination",HCT-116 xenografts; CBDC402 (two times per week) plus CPT-11 (one time per week),strong tumor suppressive activity
same,HCT-116 xenograft tumor growth,"HCT-116 xenografts; CBDC402 alone, 40 mg/kg intraperitoneal, two times per week for two weeks",did not suppress tumor growth significantly
"(d-Bpa)(d-Ser)(d-Trp)(d-Ser)(d-Phe-2,3,4,5,6-F)(d-Cha)(d-Arg)(d-Arg)(d-Arg)(d-Gln)(d-Arg)(d-Arg) ([dBpa][dS][dW][dS][dPhe(F5)][dCha][dR][dR][dR][dQ][dR][dR]) [CBP501]","xenograft tumor growth, combination","[1]; CBP501 (30, 60 or 120 mg/m^2) combined with cisplatin 3 mg/kg, intraperitoneal, two times each week for two weeks",more effective than either compound alone; also recorded: significant inhibition of xenograft tumor growth
same,xenograft tumor growth,"[1]; CBP501 alone, 120 mg/m^2 intraperitoneal, two times each week for two weeks (day 1, 5, 8, 12)",little or no effect on tumor growth; also recorded: did not significantly inhibit xenograft tumor growth
same,"G1 and G2/M peaks of cultured MIAPaCa2 xenograft tumor cells, combination",MIAPaCa2 cells; [3],dramatically decreased both the G1 and G2/M peaks
same,"sub-G1 population of cultured MIAPaCa2 xenograft tumor cells, combination",MIAPaCa2 cells; [3],increased the sub-G1 population
same,change in cell cycle distribution of cultured MIAPaCa2 xenograft tumor cells,"MIAPaCa2 cells; CBP501 alone, 10 μM for 3 hours, then cultured 24 to 48 hours",cell cycle distribution was not significantly altered
same,"cell death in the population of tumor cells by direct observation of cell morphology, combination",MIAPaCa2 cells; CBP501 combined with cisplatin,dramatic increase in cell death
same,"anti-cancer effect in vitro, human cancerous cells in culture, combination",MIAPaCa2 cells; CBP501 combined with cisplatin (summary of Example 3),more pronounced anti-cancer effect
same,"anti-cancer efficacy in vitro, human cancerous cells in culture",MIAPaCa2 cells,some anti-cancer efficacy
"CCc1c2c(nc3ccc(OC(=O)N4CCC(N5CCCCC5)CC4)cc13)-c1cc3c(c(=O)n1C2)COC(=O)[C@]3(O)CC [CPT-11, irinotecan, reference compound]","change in cell cycle distribution (G1, G2/M populations) of HCT-116 cells",HCT-116 cells; [4],changed the cell cycle distribution dramatically
same,sub-G1 (dead cell) population of HCT-116 cells,HCT-116 cells; [4],no increase in the sub-G1 population
same,HCT-116 xenograft tumor growth,"HCT-116 xenografts; CPT-11 alone, 20 mg/kg intraperitoneal, one time per week for two weeks",moderate tumor suppressive activity
"COc1ccc(OC(=O)c2ccc(Cl)cc2)cc1 [CBDC004, 4-Chloro-benzoic acid 4-methoxy-phenyl ester]","change in DNA content / G2/M and G1 populations of HCT-116 cells, combination treatment",HCT-116 cells; [2],did not change the DNA content more than CPT-11 alone
same,change in DNA content (cell cycle distribution) of HCT-116 cells,HCT-116 cells; DNA content measured at 24 hr,did not alter the DNA content
same,HCT-116 xenograft tumor growth,"HCT-116 xenografts; CBDC004 alone, 30 mg/kg intraperitoneal, three times per week for two weeks",did not suppress tumor growth
same,"HCT-116 xenograft tumor growth, combination",HCT-116 xenografts; CBDC004 in combination with CPT-11 (one time per week),did not suppress tumor growth
"N.N.[Cl][Pt][Cl] [cisplatin, reference compound]",xenograft tumor growth,"[1]; cisplatin alone, 3 mg/kg intraperitoneal, two times each week for two weeks",little or no effect on tumor growth
same,change in cell cycle distribution of cultured MIAPaCa2 xenograft tumor cells,"MIAPaCa2 cells; cisplatin alone, 10 μg/ml for 3 hours, then cultured 24 to 48 hours",accumulation of cells in G2/M phase
same,"anti-cancer efficacy in vitro, human cancerous cells in culture",MIAPaCa2 cells,some anti-cancer efficacy
